Measurements taken from patent publication US12428648B2, “Compositions comprising peptides that block transmission of orthotospoviruses” (priority 2019, dated 2025).
No end group written: not given here.

Test system: not listed separately
Assay: Dissolution of the synthesized peptides
Format: physicochemical
Settings: molecular biology grade water; 25% acetic acid for A229
With RLTGECAITKVSLTN [A229] the “solubility of the peptide, in words” value was “did not dissolve in either water or 25% acetic acid”.
In the case of NASIAAAHEVSQE [AAA], the “solubility of the peptide, in words” value is reported as “dissolved in molecular biology grade water”.
In the case of NASIRGDHEVSQE [RGD], the “solubility of the peptide, in words” value is reported as “dissolved in molecular biology grade water”.
With RLTGECNITKVSLTN [N229] the “solubility of the peptide, in words” value was “dissolved in molecular biology grade water”.
With NASIRAAHEVSQE [RAA] the “solubility of the peptide, in words” value was “dissolved in molecular biology grade water”.
With NASIAGDHEVSQE [AGD] the “solubility of the peptide, in words” value was “dissolved in molecular biology grade water”.
In the case of NASIAGAHEVSQE [AGA], the “solubility of the peptide, in words” value is reported as “dissolved in molecular biology grade water”.
In the case of NASIRADHEVSQE [RAD], the “solubility of the peptide, in words” value is reported as “insoluble in H2O”.
In the case of NASIAADHEVSQE [AAD], the “solubility of the peptide, in words” value is reported as “insoluble in H2O”.
For NASIRGAHEVSQE [RGA], the “solubility of the peptide, in words” value was “dissolved in molecular biology grade water”.

Target: α5β1 (Homo sapiens, UniProt P05556+P08648)
Sequence (P08648 42-1049): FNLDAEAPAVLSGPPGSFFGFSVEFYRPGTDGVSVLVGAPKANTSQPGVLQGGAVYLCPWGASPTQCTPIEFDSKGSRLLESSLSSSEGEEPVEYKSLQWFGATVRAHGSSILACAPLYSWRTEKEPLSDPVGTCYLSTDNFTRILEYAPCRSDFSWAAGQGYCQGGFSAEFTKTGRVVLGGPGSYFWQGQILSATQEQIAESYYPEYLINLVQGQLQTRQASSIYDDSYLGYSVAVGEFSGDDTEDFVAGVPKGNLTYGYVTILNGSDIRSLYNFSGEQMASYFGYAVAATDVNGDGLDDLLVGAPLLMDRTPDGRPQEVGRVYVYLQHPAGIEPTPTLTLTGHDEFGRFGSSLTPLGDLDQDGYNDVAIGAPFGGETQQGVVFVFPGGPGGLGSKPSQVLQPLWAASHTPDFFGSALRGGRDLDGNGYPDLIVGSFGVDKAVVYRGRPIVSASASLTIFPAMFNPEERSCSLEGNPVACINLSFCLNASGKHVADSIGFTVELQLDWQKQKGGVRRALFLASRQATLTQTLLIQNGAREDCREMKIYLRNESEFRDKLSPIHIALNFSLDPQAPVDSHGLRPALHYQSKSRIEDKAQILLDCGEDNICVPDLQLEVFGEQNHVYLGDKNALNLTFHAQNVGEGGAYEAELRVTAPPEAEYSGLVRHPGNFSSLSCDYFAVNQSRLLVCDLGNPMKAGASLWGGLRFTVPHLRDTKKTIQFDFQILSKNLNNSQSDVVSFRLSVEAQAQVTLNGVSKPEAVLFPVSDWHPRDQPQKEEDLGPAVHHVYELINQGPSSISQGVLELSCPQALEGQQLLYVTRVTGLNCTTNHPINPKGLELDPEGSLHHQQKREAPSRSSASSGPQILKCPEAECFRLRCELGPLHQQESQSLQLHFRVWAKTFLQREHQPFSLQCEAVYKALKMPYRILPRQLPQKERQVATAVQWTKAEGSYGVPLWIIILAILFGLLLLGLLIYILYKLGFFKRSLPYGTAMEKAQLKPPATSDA
Sequence (P05556 21-798): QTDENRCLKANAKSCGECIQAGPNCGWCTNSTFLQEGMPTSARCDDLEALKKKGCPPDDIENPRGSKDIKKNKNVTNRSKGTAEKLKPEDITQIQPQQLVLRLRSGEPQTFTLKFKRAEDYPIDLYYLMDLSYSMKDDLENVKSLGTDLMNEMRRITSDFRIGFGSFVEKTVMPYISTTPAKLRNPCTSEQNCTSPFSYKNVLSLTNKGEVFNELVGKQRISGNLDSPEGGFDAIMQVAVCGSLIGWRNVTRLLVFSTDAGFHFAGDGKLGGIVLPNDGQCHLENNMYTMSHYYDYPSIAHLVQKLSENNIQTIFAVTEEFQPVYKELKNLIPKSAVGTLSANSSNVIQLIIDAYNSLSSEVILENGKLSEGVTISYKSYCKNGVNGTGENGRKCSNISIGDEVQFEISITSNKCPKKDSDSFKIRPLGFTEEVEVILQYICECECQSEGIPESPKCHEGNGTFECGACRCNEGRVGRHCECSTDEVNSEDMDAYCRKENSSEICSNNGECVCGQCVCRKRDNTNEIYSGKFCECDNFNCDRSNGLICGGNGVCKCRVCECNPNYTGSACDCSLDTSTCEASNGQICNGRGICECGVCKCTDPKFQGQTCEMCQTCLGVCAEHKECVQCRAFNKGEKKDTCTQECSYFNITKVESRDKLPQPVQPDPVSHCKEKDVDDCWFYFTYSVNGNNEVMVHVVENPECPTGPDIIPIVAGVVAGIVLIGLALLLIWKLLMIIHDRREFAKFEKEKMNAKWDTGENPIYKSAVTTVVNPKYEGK
Assay: not given
Settings: Hersel et al., 2003; cited from earlier work
In the case of RGDSPASSKP, the “integrin binding preference, in words” value is listed as “bind preferentially to α5β1”.
For GRGDSP, the “integrin binding preference, in words” value is given as “bind preferentially to α5β1”.

Target: αvβ3 (Homo sapiens, UniProt P05106+P06756)
Sequence (P06756 31-1048): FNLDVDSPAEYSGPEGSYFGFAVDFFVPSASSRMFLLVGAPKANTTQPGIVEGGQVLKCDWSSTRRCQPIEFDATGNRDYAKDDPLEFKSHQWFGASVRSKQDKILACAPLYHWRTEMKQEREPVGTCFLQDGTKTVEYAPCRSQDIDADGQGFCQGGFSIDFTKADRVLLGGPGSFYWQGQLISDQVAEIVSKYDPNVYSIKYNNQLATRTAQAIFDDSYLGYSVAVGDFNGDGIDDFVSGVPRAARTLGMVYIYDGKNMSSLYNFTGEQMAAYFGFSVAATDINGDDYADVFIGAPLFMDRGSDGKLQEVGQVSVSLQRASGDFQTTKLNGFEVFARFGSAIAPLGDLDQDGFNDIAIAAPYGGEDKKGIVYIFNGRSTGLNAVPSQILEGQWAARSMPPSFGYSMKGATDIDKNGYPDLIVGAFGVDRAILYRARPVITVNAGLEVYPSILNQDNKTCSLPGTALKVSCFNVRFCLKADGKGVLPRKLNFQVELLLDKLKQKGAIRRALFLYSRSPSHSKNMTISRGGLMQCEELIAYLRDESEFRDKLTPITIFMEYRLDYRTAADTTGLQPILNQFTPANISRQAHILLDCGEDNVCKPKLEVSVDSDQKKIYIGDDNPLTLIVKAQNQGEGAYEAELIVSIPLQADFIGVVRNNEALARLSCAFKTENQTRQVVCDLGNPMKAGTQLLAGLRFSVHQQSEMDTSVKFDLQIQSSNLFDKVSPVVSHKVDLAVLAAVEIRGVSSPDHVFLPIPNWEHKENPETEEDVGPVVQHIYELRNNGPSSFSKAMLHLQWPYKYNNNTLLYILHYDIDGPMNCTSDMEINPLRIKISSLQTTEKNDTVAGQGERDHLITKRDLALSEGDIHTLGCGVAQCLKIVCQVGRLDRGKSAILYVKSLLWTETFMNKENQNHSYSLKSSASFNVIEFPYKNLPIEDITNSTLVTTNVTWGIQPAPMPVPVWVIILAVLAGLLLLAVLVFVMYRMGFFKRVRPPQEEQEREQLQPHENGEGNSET
Sequence (P05106 27-788): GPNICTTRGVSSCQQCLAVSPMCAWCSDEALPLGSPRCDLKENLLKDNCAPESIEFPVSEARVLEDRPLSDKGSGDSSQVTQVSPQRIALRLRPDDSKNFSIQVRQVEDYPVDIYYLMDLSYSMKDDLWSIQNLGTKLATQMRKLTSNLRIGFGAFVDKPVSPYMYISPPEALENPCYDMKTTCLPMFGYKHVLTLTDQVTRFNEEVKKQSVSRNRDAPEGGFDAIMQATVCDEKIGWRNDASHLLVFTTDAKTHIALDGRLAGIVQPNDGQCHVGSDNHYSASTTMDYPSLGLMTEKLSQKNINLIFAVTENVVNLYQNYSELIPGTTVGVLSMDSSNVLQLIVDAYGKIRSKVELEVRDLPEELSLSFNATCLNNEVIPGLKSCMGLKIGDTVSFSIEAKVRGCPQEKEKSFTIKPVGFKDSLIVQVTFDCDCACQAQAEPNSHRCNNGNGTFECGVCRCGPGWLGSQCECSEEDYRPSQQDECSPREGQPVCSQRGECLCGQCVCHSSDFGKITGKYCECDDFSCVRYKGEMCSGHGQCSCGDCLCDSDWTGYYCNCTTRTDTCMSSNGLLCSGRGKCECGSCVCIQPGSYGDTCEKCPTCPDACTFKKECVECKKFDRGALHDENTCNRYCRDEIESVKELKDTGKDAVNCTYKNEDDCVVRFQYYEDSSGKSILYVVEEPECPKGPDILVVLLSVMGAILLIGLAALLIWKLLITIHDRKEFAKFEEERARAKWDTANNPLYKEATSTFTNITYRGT
Assay: not given
Settings: Hersel et al., 2003; cited from earlier work
In the case of GPenGRGDSPCA, the “integrin selectivity, in words” value is listed as “selective for αvβ3”.
